Test results taken from patent US10201530B2, “Treatment of BRCA1-defective cancer or resistant cancers” (City of Hope, priority 2014, dated 2019).

Tests used:
OV90 = test: Cytotoxicity (MTT/DIMSCAN), OV90 cells; format: cell-based, human; conditions: Homo sapiens, OV-90; OV90, wild-type BRCA1 ovarian cancer cells; COH29 72 h; read-out: IC50, mean ± SEM
Description: (§1) All cell lines were acquired from the American Type Culture Collection (Manassas, Va., USA). Cells were maintained in RPMI 1640 medium (Mediatech) with 10% fetal bovine serum, 2 mM glutamine, and 100 U of penicillin and 100 μg of streptomycin per ml of medium (Sigma) at 37° C. in 5% CO2. To isolate HCC1437+BRCA1 cells, parental HCC1937 cells were transfected with pcDNA3.1 plasmid expressing full-length BRCA1 cDNA. Stable transfectant clones were selected and used for drug sensitivity assays. For stable transfection, cells at 30-40% confluence were incubated overnight with […] of plasmid DNA, using FUGENE® 6 transfectin reagent (Roche Molecular Biochemical, Monza, Italy) according to the manufacturer's instructions. Cells were then selected in puromycin (1 μg/ml) (Invitrogen life Technologies, La Jolla, Calif., USA.) After 20 to 30 days, viable puromycin-resistant colonies from HCC1937 transfections were expanded and screened. The clones that stably expressed […] and retained growth potential were assayed for BRCA1 expression by Western blot analysis. By Western blot analysis, we evaluated the restoration of BRCA1 expression in the puromycin-resistant cDNA/transfectant cells.
(§2) The MTT cytotoxicity assay was performed by incubating with MTT and monitoring the MTT formazan formed by viable cells with a microplate reader at a wavelength of 560 nm; the survival, ratio was determined using the formula: (Atest−Ablank)/(Acontrol−Ablank)×100%. The cytotoxicity was determined in 96-well plates using the semiautomatic fluorescence-based Digital Imaging Microscopy System (DIMSCAN). DIMSCAN uses digital imaging microscopy to quantify viable cells, which selectively accumulate FDA (fluorescein diacetate; Alfa Aesar, Ward Hill, Mass.). DIMSCAN is capable of measuring cytotoxicity over a 4 log dynamic range by quantifying total fluorescence per well (which is proportional to the number of viable cells) after elimination of the background fluorescence by digital thresholding and eosin Y (Mallinckrodt Baker, Center Valley, Pa.) quenching. Cells were seeded into 96-well plates in 100 μL of complete medium at 2,000 to 5,000 cells per well depending on cell line growth rate. After overnight incubation, test compound was added to each well at various concentrations in 50 μL of culture medium. […] Total fluorescence per well was then measured using DIMSCAN, and the results were expressed as the ratio of the fluorescence in treated wells to the fluorescence in untreated wells (survival fraction).

OVCAR-3 = test: Cytotoxicity, OVCAR-3 cells; format: cell-based, human; conditions: Homo sapiens, read-out: IC50, mean ± SEM
Description: as §1
(§3) The MTT cytotoxicity assay was performed by incubating with MTT and monitoring the MTT formazan formed by viable cells with a microplate reader at a wavelength of 560 nm; the survival, ratio was determined using the formula: (Atest−Ablank)/(Acontrol−Ablank)×100%. The cytotoxicity was determined in 96-well plates using the semiautomatic fluorescence-based Digital Imaging Microscopy System (DIMSCAN). DIMSCAN uses digital imaging microscopy to quantify viable cells, which selectively accumulate FDA (fluorescein diacetate; Alfa Aesar, Ward Hill, Mass.). DIMSCAN is capable of measuring cytotoxicity over a 4 log dynamic range by quantifying total fluorescence per well (which is proportional to the number of viable cells) after elimination of the background fluorescence by digital thresholding and eosin Y (Mallinckrodt Baker, Center Valley, Pa.) quenching. Cells were seeded into 96-well plates in 100 μL of complete medium at 2,000 to 5,000 cells per well depending on cell line growth rate. After overnight incubation, test compound was added to each well at various concentrations in 50 μL of culture medium. After incubation with the drugs for 96 hours at 37° C., FDA (final concentration: […]) and eosin Y [final concentration: 0.1% (w/v)] were added to each well and the cells were incubated for an additional 20 minutes at 37° C. Total fluorescence per well was then measured using DIMSCAN, and the results were expressed as the ratio of the fluorescence in treated wells to the fluorescence in untreated wells (survival fraction).

KB-7D = test: Cytotoxicity, KB-7D cells; format: cell-based, human; conditions: Homo sapiens, KB7D, cisplatin-resistant, read-out: IC50, mean ± SEM
Description: as §1, §3

SKBR3 = test: Cytotoxicity, SKBR3 cells; format: cell-based, human; conditions: Homo sapiens, SK-BR-3; SKBR3, ER− PR(−) HER2+
Description: as §1
The MTT cytotoxicity assay was performed by incubating with MTT and monitoring the MTT formazan formed by viable cells with a microplate reader at a wavelength of 560 nm; the survival, ratio was determined using the formula: (Atest−Ablank)/(Acontrol−Ablank)×100%. The cytotoxicity was determined in 96-well plates using the semiautomatic fluorescence-based Digital Imaging Microscopy System (DIMSCAN). DIMSCAN uses digital imaging microscopy to quantify viable cells, which selectively accumulate FDA (fluorescein diacetate; Alfa Aesar, Ward Hill, Mass.). DIMSCAN is capable of measuring cytotoxicity over a 4 log dynamic range by quantifying total fluorescence per well (which is proportional to the number of viable cells) after elimination of the background fluorescence by digital thresholding and eosin Y (Mallinckrodt Baker, Center Valley, Pa.) quenching. […]

UWB1.289 + BRCA1 = test: Cytotoxicity, UWB1.289+BRCA1 cells; format: cell-based, human; conditions: Homo sapiens, UWB1289; UWB1.289 + BRCA1 (WT); COH29 72 h; read-out: IC50, mean ± SEM
Description: as §1, §2

NHEJ pathway = test: NHEJ DNA repair, GFP-based chromosomal reporter EJ5-GFP; format: cell-based; conditions: EJ5-GFP reporter cells, 24 h
Description: The EJ2 cells were generated to evaluate Alt-NHEJ through monitoring the fluorescence intensity of GFP and EJ5 cells were used to determine NJEJ as described previously. (23) Cells were seeded into 6-well plate and treated with COH29 or cisplatin at different concentration for 24 hours. The cells were then trypsinized, washed, and analyzed by flow cytometry.

HCC1937 tumors = test: Orthotopic tumor explant model, HCC1937; format: in vivo; conditions: HCC1937 tumors in mammary fat pads of NSG mice, daily oral 400 mg/kg, 28 days
Description: Experiments in mice were conducted under a protocol approved by the IACUC of City of Hope. Because HCC1937 and HCC1937+BRCA1 cells from slow-growing tumors, they were implanted using MATRIGEL™ (Becton-Dickinson Biosciences). To establish tumors 4×10^6 cells in 200 μL serum-free medium containing 50% MATRIGEL™ were injected into the mammary fat pads around the inguinal area of a pair of 8 week old female NSG mice. Once the initial tenors reached 13 mm in diameter, they were dissected out minced into 3 mm pieces and implanted into the inguinal area of the mammary fat pads of the experimental mice Tumors were measured over a 28-day period, and for each time point, the student t-test was used to determine the statistical significance between daily gavage with 400 mg/kg COH29 in 30% solutol and corresponding vehicle control. The p value less than 0.05 (2 sides) was considered to indicate statistical significance

A2780-DDDP = test: Cytotoxicity, A2780-DDDP cells; format: cell-based, human; conditions: Homo sapiens, cisplatin-resistant ovarian cells, read-out: IC50, mean ± SEM
Description: as §1, §3

[1] = test system: multiple human cancer cell lines; conditions: in most cases; cited from earlier work

`O=C(Nc1nc(-c2ccc(O)c(O)c2)c(-c2ccccc2)s1)c1ccc(O)c(O)c1` [COH29] showed an IC50 (OV90) of 31.6 ± 3.35 µM, an IC50 (OVCAR-3) of 20.5 ± 0.81 µM and an IC50 (KB-7D) of 8.48 ± 0.27 µM. The IC50 (SKBR3) was 13.28 ± 0.03 µM, the IC50 (UWB1.289 + BRCA1) was 23.5 ± 2.38 µM and the NHEJ repair efficiency (NHEJ pathway) was “little effect on NHEJ repair”. The “growth of tumors compared to vehicle” value (HCC1937 tumors) was “significantly (p=0.0007) suppressed”, the IC50 (A2780-DDDP) was 6.47 ± 1.41 µM and the IC50 [1] was under 10 µM.
